# Source: US11440880B2, “Thalidomide analogs and methods of use” (The USA, as represented by the Secretary, Department of …, priority 2015, dated 2022)
# Entries after “also recorded” stand apart in the source; their conditions may differ.
# Columns and labels:
# chicken embryos = assay: Chicken embryo development / teratogenicity; type: in vivo, white leghorn chicken; conditions: in words; applied at HH stage 17-18
# Procedure: Chicken Embryology: Fertilized white leghorn chicken embryos were incubated at 38° C. and staged according to Hamburger and Hamilton (HH) stages of development (1951). Embryos were tested at HH stage 17-18 (day 2.5). Following membrane removal, test compounds or vehicle control solutions were applied globally over the embryo. The eggs were sealed and the development of the embryos was monitored up to HH stage 30 (E9).
# Compounds of interest were screened in chicken embryos (FIGS. 7I-7P).
# Concentrations used in the WT zebrafish and chicken embryo assays to assess for teratogenesis, were equal to or higher than those utilized in the fil1:EGFP and mpo:GFP zebrafish assays
# [1] = test system: fli1:EGFP zebrafish embryos (intersegmental vessel growth); assay: fli1:EGFP zebrafish embryo angiogenesis assay; type: in vivo; parameters: fli1:EGFP angiogenesis n (survived/tested): concentration or dose not given beside the values; conditions: for minimal effective concentration: Danio rerio, lowest concentration producing an effect, compounds not producing an effect shown at the highest evaluated concentration; for fli1:EGFP angiogenesis n (survived/tested): embryos alive after 24 hours of exposure
# How it was run: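 fli1:EGFP embryos grown 24 hpf, dechorionated and exposed to compound or vehicle over a range of concentrations for up to 24 h, with CPS49 as positive control. Imaged at 48 hpf for intersegmental vessel formation and growth; survival after 24 h exposure recorded, and values reflect the lowest concentration producing an effect.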
# [2] = test system: mpo:GFP zebrafish embryos (neutrophil migration to the wound site); assay: mpo:GFP zebrafish fin-clip neutrophil migration (inflammation) assay; type: in vivo; parameters: mpo:GFP inflammation n (survived/tested): concentration or dose not given beside the values; conditions: for minimal effective concentration: Danio rerio, Neutrophil, lowest concentration producing an effect, compounds not producing an effect shown at the highest evaluated concentration; for mpo:GFP inflammation n (survived/tested): embryos survived/tested at the concentration given
# How it was run: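 Tg(mpo::EGFP) larvae tail-fin clipped (dorsal third removed) at 72 hpf, then immersed in compound or vehicle. Neutrophils migrating to the wound site counted from images 24 h later; at least 50% reduction scored as anti-inflammatory. Viability and morphology also assessed.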
# TNF-α protein = TNF-α protein level (ELISA) in LPS-challenged RAW 264.7 cells; type: cell-based, mouse; parameters: key: NS=not significant; a “+” sign=anti-inflammatory or increased cell numbers; a “−” sign=cell toxicity or pro-inflammatory; conditions: LPS 30 or 60 ng/mL, 24 h
# How it was run: (§1)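 RAW 264.7 cells pretreated 1 h with compound in DMSO vehicle, then challenged with LPS (30 or 60 ng/mL) for 24 h at 37° C. Conditioned-media nitrite by Griess (520 nm, sodium nitrite standard curve, 1.5 μM cutoff) in μM; mouse TNF-α by ELISA as pg/ml or % change from control.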
# RAW 264.7 cells = assay: Cell viability (CellTiter 96 AQueous One) of LPS-challenged RAW 264.7 cells; type: cell-based, mouse; parameters: key: NS=not significant; a “+” sign=anti-inflammatory or increased cell numbers; a “−” sign=cell toxicity or pro-inflammatory
# How it was run: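 RAW 264.7 murine macrophages pretreated 1 h with compound or DMSO vehicle, then challenged with LPS (serotype 055:B5) at 30 or 60 ng/mL final for 24 h. After media replacement, viability measured by tetrazolium (MTS) conversion, absorbance at 490 nm, reported as O.D.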
# [3] = test system: nitrite levels in the culture media; assay: Nitrite level (Griess Reagent System) in LPS-challenged RAW 264.7 cells; type: cell-based, mouse; parameters: key: NS=not significant; a “+” sign=anti-inflammatory or increased cell numbers; a “−” sign=cell toxicity or pro-inflammatory; conditions: LPS 30 or 60 ng/mL, 24 h
# How it was run: as §1
# [4] = test system: human saphenous vein sections (microvessel outgrowth); assay: Human saphenous vein assay of angiogenesis (ex vivo); type: cell-based; conditions: positive control, 10 days of incubation
# Procedure: The saphenous vein was cleaned of subcutaneous tissue and embedded in Matrigel® matrix as previously described. After 10 days of incubation, the transverse sections of the veins were imaged. The outgrowth between the vehicle and no treatment (media) control was equivalent (106.65%±20.14, n=2 and 103.35%±4.06, n=2 respectively; FIGS. 13A and 13B).
Structure (SMILES),effect on development / mortality of chicken embryos (chicken embryos),minimal effective concentration [1] [µg/mL],fli1:EGFP angiogenesis n (survived/tested) [1],minimal effective concentration [2] [µg/mL],mpo:GFP inflammation n (survived/tested) [2],TNF-α (TNF-α protein; 1 μM),TNF-α (TNF-α protein; 10 μM),TNF-α (TNF-α protein; 30 μM),Viability (RAW 264.7 cells; 1 μM),Viability (RAW 264.7 cells; 10 μM),Viability (RAW 264.7 cells; 30 μM),Nitrite ([3]; 1 μM),Nitrite ([3]; 10 μM),Nitrite ([3]; 30 μM),vessel outgrowth [4]
Nc1ccc2c(c1)C(=O)N(C1CCC(=O)NC1=O)C2=O (centres unmarked) [Compound 11],missing digits in the hindlimb; also recorded: limb reduction defect,50,24/43,10,16/22,,,,,,,,,,
O=C1NC(=S)CCC1N1C(=O)c2ccc(Cl)cc2C1=O (centres unmarked) [Compound 23],constriction in vasculature (white arrow) and necrosis (black arrow) of the chorioallantoic membrane,10,23/30,10,13/35,,,,,,,,,,
"O=C1c2ccccc2CN1C1C2CC3CC(C2)CC1C3 (centres unmarked) [Compound 72, 2,3-Dihydro-2-(tricyclo[3.3.1.1^3,7]dec-2-yl)-1H-isoindol-1-one]",,200,9/20,10,6/15,+,NS,+,+,NS,−,NS,NS,+,
O=C1c2ccccc2CN1C12CC3CC(CC1C3)C2 [Compound 73],,10,6/12,10,7/13,NS,NS,+,NS,NS,−,NS,+,+,
"CC(N1Cc2ccccc2C1=S)C12CC3CC(CC(C3)C1)C2 (centres unmarked) [Compound 74, 2,3-Dihydro-2-[1-(1-tricyclo[3.3.1.1^3,7]dec-1-yl)ethyl]-1H-isoindol-1-thione]",,10,9/15,200,6/14,NS,NS,NS,NS,NS,NS,NS,NS,+,
"O=C1c2cccc([N+](=O)[O-])c2CN1C12CC3CC(CC(C3)C1)C2 [Compound 76, 2,3-Dihydro-4-nitro-2-(tricyclo[3.3.1.1^3,7]dec-1-yl)-1H-isoindol-1-one]",,10,28/32,100,5/11,NS,NS,+,NS,NS,NS,NS,+,+,
CC(N1Cc2c(cccc2[N+](=O)[O-])C1=O)C12CC3CC(CC(C3)C1)C2 (centres unmarked) [Compound 80],"microophthalmia (asterisk), limb reduction (white arrow), and hemorrhaging throughout the body",,,,,NS,+,+,NS,−,NS,NS,+,+,
O=C1c2cccc([N+](=O)[O-])c2CN1C1C2CC3CC(C2)CC1C3 (centres unmarked) [Compound 82],,5,18/27,5,8/22,NS,+,+,NS,−,−,+,+,+,
Nc1cccc2c1CN(C1C3CC4CC(C3)CC1C4)C2=O (centres unmarked) [Compound 83],,20,3/12,20,6/23,NS,NS,NS,NS,NS,NS,NS,+,+,
O=C1c2cccc([N+](=O)[O-])c2CN1C12CC3CC(CC1C3)C2 [Compound 84],,50,2/11,10,12/21,NS,NS,NS,NS,NS,NS,NS,+,+,
Nc1cccc2c1CN(C13CC4CC(CC1C4)C3)C2=O [Compound 85],,10,7/20,100,11/20,NS,NS,NS,NS,NS,NS,NS,NS,−,
"CO[C@@H]1[C@H](OC(=O)NC(=O)CCl)CC[C@]2(CO2)[C@H]1[C@@]1(C)O[C@@H]1CC=C(C)C [TNP-470, (Chloracetyl) carbamic acid (3R,4S,5S,6R)-5-methoxy-4-[(2R,3R)-2-methyl-3-(3-methyl-2-butenyl)oxiranyl]-1-oxaspiro[2.5]oct-6-yl ester, reference compound]",,,,,,,,,,,,,,,9.44%±1.65
